Results taken from patent US20180078655A1, “IMMUNOCONJUGATES FOR SPECIFIC INDUCTION OF T CELL CYTOTOXICITY AGAINST A TARGET CELL” (priority 2015, published 2018).

System: A-375, PC-3, HCT-116 tumor cell lines
Test: LDH release assay and xCELLigence, FLU peptide immunoconjugate
Assay type: cell-based, human
Settings: xCELLigence, 6, 10 and 18 hours

CTELKLSDY [free peptide]
tumor cell killing over the course of time: usually decreased in higher incubation times
